Assays:
[1] = molecular target: Macrophage-stimulating protein receptor (Homo sapiens) (UniProt Q04912); assay: Inhibition of Ron at 10 uM by HTRF assay
[2] = Inhibition of PKA at 10 uM by HTRF assay
[3] = molecular target: Fibroblast growth factor receptor 1 (Homo sapiens) (UniProt P11362); assay: Inhibition of FGFR1 at 10 uM by HTRF assay
[4] = molecular target: Receptor tyrosine-protein kinase erbB-2 (Homo sapiens) (UniProt P04626); assay: Inhibition of ErbB2 at 10 uM by HTRF assay
[5] = molecular target: Glycogen synthase kinase-3 beta (Homo sapiens) (UniProt P49841); assay: Inhibition of GSK3-beta at 10 uM by HTRF assay
[6] = molecular target: Epidermal growth factor receptor (Homo sapiens) (UniProt P00533); assay: Inhibition of EGFR at 10 uM by HTRF assay
Sequence of Epidermal growth factor receptor (Homo sapiens) (P00533 whole entry): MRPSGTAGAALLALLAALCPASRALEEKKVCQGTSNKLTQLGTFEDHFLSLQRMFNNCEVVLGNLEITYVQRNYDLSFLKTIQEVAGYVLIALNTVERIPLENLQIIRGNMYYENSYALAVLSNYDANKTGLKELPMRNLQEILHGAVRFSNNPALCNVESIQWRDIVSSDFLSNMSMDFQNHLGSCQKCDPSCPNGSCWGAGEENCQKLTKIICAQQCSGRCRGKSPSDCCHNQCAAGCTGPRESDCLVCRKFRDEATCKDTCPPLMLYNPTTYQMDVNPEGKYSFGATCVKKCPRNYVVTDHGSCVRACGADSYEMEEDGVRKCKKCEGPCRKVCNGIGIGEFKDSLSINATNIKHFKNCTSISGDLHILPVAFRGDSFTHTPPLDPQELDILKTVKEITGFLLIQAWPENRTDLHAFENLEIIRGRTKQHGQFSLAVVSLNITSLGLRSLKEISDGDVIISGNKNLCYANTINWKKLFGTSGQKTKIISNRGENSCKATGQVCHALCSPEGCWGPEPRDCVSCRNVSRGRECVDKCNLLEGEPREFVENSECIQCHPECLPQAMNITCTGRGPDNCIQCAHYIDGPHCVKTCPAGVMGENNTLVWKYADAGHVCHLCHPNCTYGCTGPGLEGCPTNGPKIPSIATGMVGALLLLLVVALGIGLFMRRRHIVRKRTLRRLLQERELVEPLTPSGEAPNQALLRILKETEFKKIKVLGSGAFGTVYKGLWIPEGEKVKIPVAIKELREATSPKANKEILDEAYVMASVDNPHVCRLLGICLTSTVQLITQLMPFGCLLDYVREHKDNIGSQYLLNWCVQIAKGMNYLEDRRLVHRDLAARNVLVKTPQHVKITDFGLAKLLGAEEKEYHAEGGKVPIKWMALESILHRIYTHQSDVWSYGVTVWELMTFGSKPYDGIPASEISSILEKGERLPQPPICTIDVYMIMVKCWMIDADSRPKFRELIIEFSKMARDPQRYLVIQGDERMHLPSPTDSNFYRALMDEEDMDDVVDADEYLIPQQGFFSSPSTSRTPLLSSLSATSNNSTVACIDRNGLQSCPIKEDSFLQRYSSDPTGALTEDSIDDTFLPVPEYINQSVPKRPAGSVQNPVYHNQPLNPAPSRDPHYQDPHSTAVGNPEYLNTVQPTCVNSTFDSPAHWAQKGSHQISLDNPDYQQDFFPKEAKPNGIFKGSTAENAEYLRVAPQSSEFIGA

[7] = Inhibition of Bcr-Abl T315 mutant at 10 uM by HTRF assay
[8] = molecular target: Proto-oncogene tyrosine-protein kinase Src (Homo sapiens) (UniProt P12931); assay: Inhibition of Src at 10 uM by HTRF assay
[9] = molecular target: Receptor-type tyrosine-protein kinase FLT3 (Homo sapiens) (UniProt P36888); assay: Inhibition of Flt3 at 10 uM by HTRF assay
[10] = molecular target: Insulin receptor (Homo sapiens) (UniProt P06213); assay: Inhibition of InR at 10 uM by HTRF assay
[11] = molecular target: Bcr/Abl fusion protein (Homo sapiens) (UniProt P00519+P11274); assay: Inhibition of bcr-Abl at 10 uM by HTRF assay; type: protein assay
Sequence of Bcr/Abl fusion protein (Homo sapiens) (P00519 whole entry, looked up, the tested form may be a part): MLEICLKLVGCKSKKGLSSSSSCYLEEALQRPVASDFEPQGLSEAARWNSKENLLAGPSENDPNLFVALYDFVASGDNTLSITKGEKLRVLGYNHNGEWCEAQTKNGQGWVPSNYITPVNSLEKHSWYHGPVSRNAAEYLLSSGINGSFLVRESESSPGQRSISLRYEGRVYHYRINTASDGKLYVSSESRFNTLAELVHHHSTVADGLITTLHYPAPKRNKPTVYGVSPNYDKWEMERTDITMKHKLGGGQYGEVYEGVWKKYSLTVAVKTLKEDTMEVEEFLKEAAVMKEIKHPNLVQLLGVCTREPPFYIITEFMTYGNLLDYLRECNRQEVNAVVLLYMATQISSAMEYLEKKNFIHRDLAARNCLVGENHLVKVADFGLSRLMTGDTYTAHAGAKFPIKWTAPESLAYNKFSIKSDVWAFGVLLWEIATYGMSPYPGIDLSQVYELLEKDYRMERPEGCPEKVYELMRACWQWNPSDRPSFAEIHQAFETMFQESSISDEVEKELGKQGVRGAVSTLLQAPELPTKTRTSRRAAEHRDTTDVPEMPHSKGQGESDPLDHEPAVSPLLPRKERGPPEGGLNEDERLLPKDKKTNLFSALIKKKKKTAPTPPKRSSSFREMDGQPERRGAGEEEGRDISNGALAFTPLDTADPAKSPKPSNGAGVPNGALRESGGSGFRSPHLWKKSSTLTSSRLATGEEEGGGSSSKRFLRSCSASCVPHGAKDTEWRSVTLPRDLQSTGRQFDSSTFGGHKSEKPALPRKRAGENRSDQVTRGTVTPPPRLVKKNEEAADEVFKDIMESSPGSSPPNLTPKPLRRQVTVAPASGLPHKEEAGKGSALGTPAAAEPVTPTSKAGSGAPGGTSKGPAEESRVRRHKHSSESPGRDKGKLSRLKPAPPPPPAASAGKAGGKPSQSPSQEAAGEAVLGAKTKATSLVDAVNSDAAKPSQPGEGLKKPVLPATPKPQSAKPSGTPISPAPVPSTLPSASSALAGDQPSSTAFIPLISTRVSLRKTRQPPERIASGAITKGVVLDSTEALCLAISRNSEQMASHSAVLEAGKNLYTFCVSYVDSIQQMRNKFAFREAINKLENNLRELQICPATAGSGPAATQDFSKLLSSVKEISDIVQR
Sequence of Bcr/Abl fusion protein (Homo sapiens) (P11274 whole entry, looked up, the tested form may be a part): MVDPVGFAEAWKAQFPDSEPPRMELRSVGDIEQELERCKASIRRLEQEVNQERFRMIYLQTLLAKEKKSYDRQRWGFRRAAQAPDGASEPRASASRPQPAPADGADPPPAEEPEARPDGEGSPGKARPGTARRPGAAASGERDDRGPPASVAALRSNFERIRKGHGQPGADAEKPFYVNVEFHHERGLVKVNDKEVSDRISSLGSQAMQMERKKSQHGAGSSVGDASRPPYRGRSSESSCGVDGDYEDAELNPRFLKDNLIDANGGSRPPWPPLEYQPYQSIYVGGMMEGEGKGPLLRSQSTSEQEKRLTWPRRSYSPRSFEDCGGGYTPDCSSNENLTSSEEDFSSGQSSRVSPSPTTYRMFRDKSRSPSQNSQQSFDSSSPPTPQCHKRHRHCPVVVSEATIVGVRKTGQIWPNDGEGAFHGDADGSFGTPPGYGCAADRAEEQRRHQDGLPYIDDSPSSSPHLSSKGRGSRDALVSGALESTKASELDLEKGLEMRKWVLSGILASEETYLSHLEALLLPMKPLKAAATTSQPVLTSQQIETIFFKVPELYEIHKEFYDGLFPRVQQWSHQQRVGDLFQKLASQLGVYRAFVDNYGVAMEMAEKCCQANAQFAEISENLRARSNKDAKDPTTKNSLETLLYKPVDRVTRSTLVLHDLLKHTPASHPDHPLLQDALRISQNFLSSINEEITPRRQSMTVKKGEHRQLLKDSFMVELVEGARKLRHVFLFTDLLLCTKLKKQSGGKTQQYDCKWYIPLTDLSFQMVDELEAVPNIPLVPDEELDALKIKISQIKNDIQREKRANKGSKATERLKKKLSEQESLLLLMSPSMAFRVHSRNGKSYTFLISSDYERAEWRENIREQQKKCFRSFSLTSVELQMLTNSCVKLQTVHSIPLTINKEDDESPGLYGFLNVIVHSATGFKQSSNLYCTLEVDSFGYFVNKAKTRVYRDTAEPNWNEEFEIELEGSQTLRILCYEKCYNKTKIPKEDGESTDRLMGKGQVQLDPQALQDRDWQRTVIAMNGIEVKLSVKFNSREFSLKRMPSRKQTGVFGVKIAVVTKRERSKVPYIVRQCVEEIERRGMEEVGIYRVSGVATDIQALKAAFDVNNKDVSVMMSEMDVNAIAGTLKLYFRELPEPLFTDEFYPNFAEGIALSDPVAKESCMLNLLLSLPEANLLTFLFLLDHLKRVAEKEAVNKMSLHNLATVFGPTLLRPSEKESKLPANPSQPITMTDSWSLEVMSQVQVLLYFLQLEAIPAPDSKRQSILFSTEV

[12] = molecular target: Cyclin-dependent kinase 1 (Homo sapiens) (UniProt P06493); assay: Inhibition of CDK1 at 10 uM by HTRF assay
Sequence of Cyclin-dependent kinase 1 (Homo sapiens) (P06493 whole entry, looked up): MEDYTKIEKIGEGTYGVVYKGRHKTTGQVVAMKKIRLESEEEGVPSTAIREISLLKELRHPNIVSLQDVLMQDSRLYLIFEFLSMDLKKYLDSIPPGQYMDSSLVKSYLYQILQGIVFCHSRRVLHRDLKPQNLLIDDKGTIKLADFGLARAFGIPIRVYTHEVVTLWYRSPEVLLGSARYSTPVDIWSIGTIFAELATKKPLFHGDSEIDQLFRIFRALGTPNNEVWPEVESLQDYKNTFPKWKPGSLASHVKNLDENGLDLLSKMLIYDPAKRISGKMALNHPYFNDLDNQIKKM

[13] = molecular target: Hepatocyte growth factor receptor (Homo sapiens) (UniProt P08581); assay: Inhibition of cMET at 10 uM by HTRF assay
[14] = molecular target: Cyclin-dependent kinase 2 (Homo sapiens) (UniProt P24941); assay: Inhibition of CDK2 at 10 uM by HTRF assay
[15] = molecular target: Insulin-like growth factor 1 receptor (Homo sapiens) (UniProt P08069); assay: Inhibition of IGF1R at 10 uM by HTRF assay

Measured: inhibition

Sequence of Fibroblast growth factor receptor 1 (Homo sapiens) (P11362 22-822 limits assumed): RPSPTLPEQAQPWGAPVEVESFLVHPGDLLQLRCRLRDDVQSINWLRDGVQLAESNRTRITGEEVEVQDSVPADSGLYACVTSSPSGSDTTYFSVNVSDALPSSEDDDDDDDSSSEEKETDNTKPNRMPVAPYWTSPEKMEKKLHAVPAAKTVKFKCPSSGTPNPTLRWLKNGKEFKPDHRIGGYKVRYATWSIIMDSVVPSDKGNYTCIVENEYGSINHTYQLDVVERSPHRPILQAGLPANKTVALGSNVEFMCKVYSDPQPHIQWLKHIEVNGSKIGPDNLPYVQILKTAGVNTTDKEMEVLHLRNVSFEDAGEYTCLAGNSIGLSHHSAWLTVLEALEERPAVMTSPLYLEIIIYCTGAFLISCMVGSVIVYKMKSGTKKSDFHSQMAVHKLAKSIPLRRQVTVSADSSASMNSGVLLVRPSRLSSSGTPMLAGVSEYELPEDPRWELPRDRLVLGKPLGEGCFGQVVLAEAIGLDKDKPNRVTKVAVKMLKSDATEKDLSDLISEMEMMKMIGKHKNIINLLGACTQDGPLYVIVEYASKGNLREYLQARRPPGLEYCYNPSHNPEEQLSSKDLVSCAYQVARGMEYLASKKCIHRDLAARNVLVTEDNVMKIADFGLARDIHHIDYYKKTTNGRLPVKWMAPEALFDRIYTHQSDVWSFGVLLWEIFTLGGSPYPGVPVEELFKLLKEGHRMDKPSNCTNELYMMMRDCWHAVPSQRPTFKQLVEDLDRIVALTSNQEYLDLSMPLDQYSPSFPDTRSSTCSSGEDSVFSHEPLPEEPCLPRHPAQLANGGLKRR

O=C(Nc1ccccc1Br)c1nscc1NCc1ccncc1
< 30%: [1] | [2] | [3] | [4] | [5] | [6] | [7] | [8] | [9] | [10] | [11] | [12] | [13] | [14] | [15]

O=C(Nc1ccc(C(F)(F)F)cc1)c1nscc1NCc1cccnc1
< 30%: [1] | [2] | [3] | [4] | [5] | [6] | [7] | [8] | [9] | [10] | [11] | [12] | [13] | [14] | [15]

Cc1ccc(NC(=O)c2nscc2NCc2ccncc2)c(F)c1
< 30%: [1] | [2] | [3] | [4] | [5] | [6] | [7] | [8] | [9] | [10] | [11] | [12] | [13] | [14] | [15]

O=C(Nc1cccc(Br)c1)c1nscc1NCc1cnoc1
< 30%: [1] | [2] | [3] | [4] | [5] | [6] | [7] | [8] | [9] | [10] | [11] | [12] | [13] | [14] | [15]

O=C(Nc1ccc(OC(F)(F)F)cc1)c1nscc1NCc1ccncc1
< 30%: [1] | [2] | [3] | [4] | [5] | [6] | [7] | [8] | [9] | [10] | [11] | [12] | [13] | [14] | [15]

O=C(Nc1cccc(C(F)(F)F)c1)c1nscc1NCc1cccnc1
< 30%: [1] | [2] | [3] | [4] | [5] | [6] | [7] | [8] | [9] | [10] | [11] | [12] | [13] | [14] | [15]

O=C(Nc1ccc(C(F)(F)F)cc1)c1nscc1NCc1ccncc1
< 30%: [1] | [2] | [3] | [4] | [5] | [6] | [7] | [8] | [9] | [10] | [11] | [12] | [13] | [14] | [15]

O=C(Nc1cccc(C(F)(F)F)c1)c1nscc1NCc1ccc(F)c(F)c1
< 30%: [1] | [2] | [3] | [4] | [5] | [6] | [7] | [8] | [9] | [10] | [11] | [12] | [13] | [14] | [15]

CC(C)(C)c1ccc(NC(=O)c2nscc2NCc2ccncc2)cc1
< 30%: [1] | [2] | [3] | [4] | [5] | [6] | [7] | [8] | [9] | [10] | [11] | [12] | [13] | [14] | [15]

Cc1cc(NC(=O)c2nscc2NCc2ccncc2)ccc1C(F)(F)F
< 30%: [1] | [2] | [3] | [4] | [5] | [6] | [7] | [8] | [9] | [10] | [11] | [12] | [13] | [14] | [15]

O=C(Nc1ccc(Cl)cc1)c1nscc1NCc1ccncc1
< 30%: [1] | [2] | [3] | [4] | [5] | [6] | [7] | [8] | [9] | [10] | [11] | [12] | [13] | [14] | [15]

O=C(Nc1ccc2[nH]ncc2c1)c1nscc1NCc1ccncc1
< 30%: [1] | [2] | [3] | [4] | [5] | [6] | [7] | [8] | [9] | [10] | [11] | [12] | [13] | [14] | [15]

O=C(Nc1ccc(C(F)(F)F)cc1)c1nscc1NCc1ccccn1
< 30%: [1] | [2] | [3] | [4] | [5] | [6] | [7] | [8] | [9] | [10] | [11] | [12] | [13] | [14] | [15]
